Measurements from patent US20140213520A1, “METHODS OF TREATING CARDIOVASCULAR INDICATIONS” (Cardiorentis Ltd., priority 2013, published 2014).

How the values were obtained:
Type in all cases: cell-based
[1] = test system: Cardiac microvascular endothelial cells (HCMEC); test: apoptosis ELISA measuring DNA fragmentation in HCMEC exposed to conditioned milieu (cocktail); settings: HCMEC exposed 30 hours to cocktail (C-reactive protein, TNF-alpha, IL-1β, endothelin-1, galectin-3); treated at 2, 4, 6, 10 or 24 hours; FIG. 1
Experimental: (§1) Cardiac microvascular endothelial cells (“HCMEC”) were exposed for 30 hours to a conditioned milieu (“cocktail”) containing a selection of factors (C-reactive protein at 10 μg/ml, TNF-alpha at 10 μg/ml, IL-1β at 10 ng/ml, endothelin-1 at 10 pg/ml and galectin-3 at 20 ng/ml) found in the plasma of ADHF patients. […] The cells from each exposure were harvested at 30 hours for experimental data. Experimental readouts included apoptosis, total protein nitrosylation and lactate dehydrogenase (“LDH”) assay.
In the data represented by FIG. 1, apoptosis was assessed by performing an ELISA (enzyme-linked immunosorbent assay) measuring DNA fragmentation.

[2] = test system: Cardiac microvascular endothelial cells (HCMEC); test: total protein nitrosylation by western blotting in HCMEC exposed to cocktail; settings: HCMEC exposed 30 hours to cocktail; treated at 2, 4, 6, 10 or 24 hours; FIG. 2
Experimental: as §1
The data represented by FIG. 2 is directed to protein nitrosylation which is a postranlational modification caused by peroxynitrite. Peroxynitrite (ONOO^−) results from the scavenging action of superoxide anion (O2^−) on nitric oxide (NO) and results in a decreased bioavailability of the latter. Protein Nitrosylation has several deleterious effects on key vasoactive factors and their function, e.g. prostacyclin synthase is inactivated by nitrosylation.

[3] = test system: Cardiac microvascular endothelial cells (HCMEC); test: LDH assay: LDH release into culture medium by spectrophotometry; settings: HCMEC exposed 30 hours to cocktail; treatment at two hours; FIG. 3
Experimental: as §1
FIG. 3 depicts a LDH assay that was performed by measuring LDH release (by spectrophotometry) in the medium where cells were cultured. LDH is a cytoplasmic enzyme released by cells following membrane damage (i.e., cell death).

relaxin
cocktail-induced apoptosis (DNA fragmentation ELISA) [1]: decrease cocktail-induced apoptosis | protein nitrosylation (western blotting) [2]: antioxidant property that decreases over time | LDH release (cell death) [3]: increase in cell death
